From patent US9321740B2, “Tetrazole compounds and methods of making and using same” (Zafgen, Inc., priority 2011, dated 2016)

The compounds below were run against T1, recombinant human MetAP2 (Homo sapiens, UniProt P50579) (assay: Inhibition of recombinant human MetAP2 activity (MAS substrate, amino acid oxidase/Amplex red fluorescence)). Details: manganese enzyme, 30 minutes at 25° C., pH 7.5, 0.75 mM MAS substrate, 1% DMSO; read-out: Activity (MetAP2 IC50 class).
T1 construct: Flag; made in house; host or cells: Sf9 insect cells
Assay type: biochemical
Experimental: Compounds are tested for their capacity to inhibit recombinant human MetAP2 activity using the following assay.
Human recombinant Flag-MetAP2 expressed in Sf9 cells followed by affinity purification and EDTA treatment to remove endogenous active site cation was dialysed against MnCl2 to produce the manganese enzyme used in the assay. The assay was carried out for 30 minutes at 25° C. in 50 mM HEPES buffer containing 100 mM NaCl, pH 7.5 the presence of 0.75 mM Methionine-Alanine-Serine (MAS) substrate and 50 μg/mL amino acid oxidase using a dilution of purified MetAP2 giving approximately 50,000 RFU control activity. Cleavage of the substrate by MetAP2 and oxidation of free methionine by amino acid oxidase was detected and quantified using fluorescence generated by Amplex red (10-acetyl-3,7-dihydroxyphenoxazine) in combination with horseradish peroxidase which detects H2O2 released during the oxidation step. The fluorescent signal was detected using a multiwell fluorimeter. Compounds were diluted in DMSO prior to addition to assay buffer, the final DMSO concentration in the assay being 1%.
The IC50 is defined as the concentration at which a given compound achieves 50% inhibition of control. IC50 values are calculated using the XLfit software package (version 2.0.5).

T1 sequence (P50579 whole entry): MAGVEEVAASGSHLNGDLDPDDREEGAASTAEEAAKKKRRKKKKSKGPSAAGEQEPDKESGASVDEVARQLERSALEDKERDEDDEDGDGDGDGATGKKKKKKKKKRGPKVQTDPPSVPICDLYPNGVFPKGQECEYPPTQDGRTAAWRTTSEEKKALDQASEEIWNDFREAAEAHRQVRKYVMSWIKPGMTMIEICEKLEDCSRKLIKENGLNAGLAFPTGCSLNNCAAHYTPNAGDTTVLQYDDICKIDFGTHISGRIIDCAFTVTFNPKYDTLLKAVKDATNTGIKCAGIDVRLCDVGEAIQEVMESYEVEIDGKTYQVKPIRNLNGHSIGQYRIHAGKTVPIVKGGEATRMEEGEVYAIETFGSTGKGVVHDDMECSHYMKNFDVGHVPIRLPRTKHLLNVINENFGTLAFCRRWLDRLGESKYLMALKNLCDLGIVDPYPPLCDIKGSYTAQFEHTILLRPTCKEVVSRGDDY

| IC50 [nM] | SMILES |
| --- | --- |
| > 1000 | O=S(=O)(Nc1ccc2c(c1-c1nnn[nH]1)CCCC2)c1ccccc1 [N-[1-(1H-Tetrazol-5-yl)-5,6,7,8-tetrahydronaphthalen-2-yl]-benzenesulfonamide] |
| > 1000 | O=S(=O)(Nc1cccc(Br)c1-c1nnn[nH]1)c1ccccc1 [N-[3-Bromo-2-(1H-tetrazol-5-yl)-phenyl]-benzenesulfonamide] |
| < 1000 | O=S(=O)(Nc1cccc(C2CC2)c1-c1nnn[nH]1)c1ccccc1 [N-[3-Cyclopropyl-2-(1H-tetrazol-5-yl)-phenyl]-benzenesulfonamide] |
| < 1000 | COc1cccc(NS(=O)(=O)c2ccccc2)c1-c1nnn[nH]1 [N-[3-Methoxy-2-(1H-tetrazol-5-yl)-phenyl]-benzenesulfonamide] |
| > 1000 | Cc1cccc(NS(=O)(=O)c2ccccc2)c1-c1nnn[nH]1 [N-[3-Methyl-2-(1H-tetrazol-5-yl)-phenyl]-benzenesulfonamide] |
